Structures can show the parent of a compound that is named as a salt.
Columns and labels:
[1] = tested on: Celery cabbage soft rot; experiment: Controlling effect on Celery cabbage soft rot, field test; type: in vivo; conditions: sprayed 3 times at 7-day intervals
Description: (§1) Preventive value=(1−disease severity of treated lot/disease severity of non-treated lot)×100
(§2) (Disease severity may be replaced by degree of damage or ratio of damage.)
Commercially available Agrepto wettable powder containing 25% of streptomycin sulfate (20% as streptomycin) or commercially available Iminoctadine ABS salt [trade name: Bellkute wettable powder (40%)] was diluted to a predetermined concentration and tested. The preparations produced according to Preparation Examples 1 and 3 were also diluted to predetermined concentrations. In early August, Celery cabbages were sown in 5.2 m^2 per lot in triplicate. From 20 September when the plant reached 10-leaf stage, the predetermined agents were continually sprayed 3 times with intervals of 7 days. In late October, the disease severity and degree of damage of Celery cabbage soft rot were investigated using 4-rank indices.
1: Only a portion of outer leaves damaged;
2: A portion of outer leaves and head portion damaged; and
3: Most part of head portion damaged.
Degree of damage=Σ(Index×the number of individuals)÷(the number of individuals searched×3)×100

[2] = tested on: Japanese apricot canker bacterium (Pseudomonas syringae pv. morsprunorum); experiment: in vitro antibacterial test on PDA culture medium; type: cell-based; set-up: key to growth of bacteria: +++: Colonies grew well; ++: Growth was slightly suppressed; +: Growth was strongly suppressed but proliferation was observed; −: No proliferation was observed; conditions: for growth of bacteria: 21° C., after 3 days
Description: (§3) Each agent was dissolved in sterilized water and added to PDA culture medium (Nissui Seiyaku Co., Ltd.) and Japanese apricot canker bacterium (Pseudomonas syringae pv. morsprunorum), vegetables' soft rot disease bacterium (Erwinia carotovora sub-sp. cartovora), and citrus canker bacterium (Xanthomonas campestris pv. citri) were inoculated.
(§4) The Japanese apricot canker bacterium was cultivated at 21° C., the vegetables' soft rot disease bacterium and citrus canker bacterium were cultivated at 28° C. After 3 days from the start of cultivation, the growth of bacteria was monitored.

[3] = tested on: citrus canker bacterium (Xanthomonas campestris pv. citri); experiment: in vitro antibacterial test on PDA culture medium; type: cell-based; set-up: key to growth of bacteria: +++: Colonies grew well; ++: Growth was slightly suppressed; +: Growth was strongly suppressed but proliferation was observed; −: No proliferation was observed; conditions: for growth of bacteria: 28° C., after 3 days
Description: as §3, §4

[4] = tested on: vegetables' soft rot disease bacterium (Erwinia carotovora sub-sp. cartovora); experiment: in vitro antibacterial test on PDA culture medium; type: cell-based; set-up: key to growth of bacteria: +++: Colonies grew well; ++: Growth was slightly suppressed; +: Growth was strongly suppressed but proliferation was observed; −: No proliferation was observed; conditions: for growth of bacteria: 28° C., after 3 days
Description: as §3, §4

[5] = tested on: Japanese apricot bacterial canker; experiment: Controlling effect on Japanese apricot bacterial canker (1), field trees, spray; type: in vivo; conditions: sprayed four times at 10-day intervals
Description: as §1
Commercially available Agrepto wettable powder containing 25% of streptomycin sulfate (20% as streptomycin) or commercially available Iminoctadine ABS salt [trade name: Bellkute wettable powder (40%)] was diluted to a predetermined concentration and tested. Also, the preparation produced according to Preparation Example 2 was diluted to a predetermined concentration and tested.
Young 5-year old Japanese apricot trees which frequently suffered from Japanese apricot bacterial canker in the preceding year, were tested. Predetermined agents were continually sprayed four times with intervals of 10 days starting from early April. In May, the disease severity of Japanese apricot bacterial canker was searched on 100 fruits per tree for total 5 trees in each lot and the results were evaluated by 5-rank indices.
The damaged fruits were searched and disease severity and preventive value were calculated using the indices and equation below.
2: Medium=6 to 15 lesions
6: Extreme=31 or more lesions or with cracks
Disease severity=Σ(Index×The number of damaged fruits per degree)÷(6×The number of tested fruits)×100

[6] = tested on: citrus canker bacterium (Xanthomonas campestris pv. citri); experiment: Controlling effect on citrus canker, pot-grown Watson pomelo leaves; type: in vivo; conditions: 20 leaves, after 1 month
Description: as §1, §2
Commercially available Agrepto wettable powder containing 25% of streptomycin sulfate (20% as streptomycin) or commercially available Iminoctadine ABS salt [trade name: Bellkute wettable powder (40%)] was diluted to a predetermined concentration and tested. The preparations produced according to Preparation Examples 2 and 4 were also diluted to predetermined concentrations. 20 new leaves of pot-grown Watson pomelo were tested for each of the preparations. After wounding the leaves with a needle, each predetermined agent solution was sprayed thereon and the leaves were air dried. Then, citrus canker bacterium (Xanthomonas campestris pv. citri) was inoculated with the density of 1×10^6 cells. Thereafter, the trees were put into controlled cultivation in a greenhouse. After 1 month, the emergence of citrus canker was investigated.

[7] = tested on: Japanese apricot canker bacterium (Pseudomonas syringae pv. morsprunorum); experiment: Controlling effect on Japanese apricot bacterial canker (2), potted seedlings, spray inoculation; type: in vivo; conditions: leaf spray before inoculation, after 7 days
Description: as §1
Japanese apricot seedlings rested for the winter season in the open field were cut to the height of 60 cm and transplanted to 1/5000 a Wagner pots and allowed to sprout and develop leaves in a greenhouse were tested. After giving fine bruises to the leaves with Carborandum, water was sprayed sufficiently to flow away the Carborandum. After air drying, the agents diluted to predetermined concentrations with water were sprayed onto the leaves, which were air dried again. Japanese apricot canker bacterium (Pseudomonas syringae pv. morsprunorum) preliminarily cultivated in PPG medium (200 g of potato, 3 g of disodium phosphate (dodecahydrate), 0.5 g of dikalium phosphate, 5 g of peptone, 3 g of sodium chloride, 5 g of glucose, 1 L of distilled water) was inoculated by spraying together with the medium. The inoculated plants were placed under controlled humid conditions (temperature 20° C., humidity 99% to 100%) for 40 hours and then transferred to a greenhouse to allow the disease to emerge. After 7 days, the lesion area in each lot was measured and disease severity and preventive value were calculated according to the following indices.
1: Several lesions on the leaves of one branch;
2: The damaged area was less than ¼ of the total area of the leaves on one branch;
3: The damaged area was from ¼ to less than ½ of the total area of the leaves on one branch;
4: The damaged area was from ½ to less than ⅔ of the total area of the leaves on one branch; and
5: The damaged area was ⅔ or more of the total area of the leaves on one branch.
Disease severity=Σ(Index×The number of data)÷(Total number of data×5)×100

[8] = tested on: genus Pseudomonas; conditions: from Japanese Patent Publication No. Sho 43-27335; cited from earlier work
[9] = tested on: genus Xanthomonas; conditions: from Japanese Patent Publication No. Sho 43-27335; cited from earlier work

For `CCn1cc(C(=O)O)c(=O)c2cc3c(cc21)OCO3` [Oxolinic acid, oxolinic acid], the Degree of damage ([1]; 100 ppm) was 3.3, the Preventive value ([1]; 100 ppm) was 85 and the “The number of individuals damaged” value ([1]; 100 ppm) was 4. The growth of bacteria ([2]; 1 ppm in PDA medium) was “++”, the growth of bacteria ([2]; 10 ppm in PDA medium) was “−” and the growth of bacteria ([3]; 1 ppm in PDA medium) was “+++”. For the same compound, the growth of bacteria ([3]; 10 ppm in PDA medium) was “++”, the growth of bacteria ([4]; 1 ppm in PDA medium) was “−” and the growth of bacteria ([4]; 10 ppm in PDA medium) was “−”.

In the case of `N=C(N)NCCCCCCCCNCCCCCCCCNC(=N)N` [Iminoctadine ABS salt, bis(8-guanidinooctyl)amine], the Disease severity ([5]; 200 ppm) is reported as 1.2, the Preventive value ([5]; 200 ppm) is reported as 68 and the “The number of damaged fruits” value ([5]; 200 ppm) is reported as 18. For the same compound, the Degree of damage ([1]; 200 ppm) was 6.4, the Preventive value ([1]; 200 ppm) was 71 and the “The number of individuals damaged” value ([1]; 200 ppm) was 12. The Preventive value ([6]; 50 ppm) was 55, the “Ratio of suffering leaves” value ([6]; 50 ppm) was 45 and the “The number of suffering leaves” value ([6]; 50 ppm) was 9. The Preventive value ([6]; 100 ppm) was 75, the “Ratio of suffering leaves” value ([6]; 100 ppm) was 25 and the “The number of suffering leaves” value ([6]; 100 ppm) was 5. For the same compound, the Preventive value ([6]; 400 ppm) was 85, the “Ratio of suffering leaves” value ([6]; 400 ppm) was 15 and the “The number of suffering leaves” value ([6]; 400 ppm) was 3. The growth of bacteria ([2]; 1 ppm in PDA medium) was “+++”, the growth of bacteria ([2]; 10 ppm in PDA medium) was “+++” and the growth of bacteria ([2]; 100 ppm in PDA medium) was “++”. The “suppression of growth in vitro” value ([2]; even added at 100 ppm) was “did not suppress the growth”, the growth of bacteria ([3]; 1 ppm in PDA medium) was “+++” and the growth of bacteria ([3]; 10 ppm in PDA medium) was “+++”. For the same compound, the growth of bacteria ([3]; 100 ppm in PDA medium) was “+++”, the “suppression of growth in vitro” value ([3]; even added at 100 ppm) was “did not suppress the growth” and the growth of bacteria ([4]; 1 ppm in PDA medium) was “+++”. The growth of bacteria ([4]; 10 ppm in PDA medium) was “+++”, the growth of bacteria ([4]; 100 ppm in PDA medium) was “+++” and the “suppression of growth in vitro” value ([4]; even added at 100 ppm) was “did not suppress the growth”. The Disease severity ([7]; 200 ppm) was 19 and the Preventive value ([7]; 200 ppm) was 73.

In the case of `[H]/N=C(/N)N[C@H]1[C@H](O)[C@@H](O)[C@H](O[C@@H]2O[C@@H](C)[C@](O)(C=O)[C@H]2O[C@@H]2O[C@@H](CO)[C@H](O)[C@@H](O)[C@@H]2NC)[C@@H](N/C(N)=N\[H])[C@@H]1O` [Streptomycin sulfate, streptomycin sulfate], the Disease severity ([5]; 125 ppm) is reported as 1.6, the Preventive value ([5]; 125 ppm) is reported as 57 and the “The number of damaged fruits” value ([5]; 125 ppm) is reported as 23. For the same compound, the Degree of damage ([1]; 125 ppm) was 4.6, the Preventive value ([1]; 125 ppm) was 79 and the “The number of individuals damaged” value ([1]; 125 ppm) was 10. For the same compound, the Preventive value ([6]; 62.5 ppm) was 60, the “Ratio of suffering leaves” value ([6]; 62.5 ppm) was 40 and the “The number of suffering leaves” value ([6]; 62.5 ppm) was 8. The Preventive value ([6]; 125 ppm) was 80, the “Ratio of suffering leaves” value ([6]; 125 ppm) was 20 and the “The number of suffering leaves” value ([6]; 125 ppm) was 4. The Preventive value ([6]; 500 ppm) was 95, the “Ratio of suffering leaves” value ([6]; 500 ppm) was 5 and the “The number of suffering leaves” value ([6]; 500 ppm) was 1. The growth of bacteria ([2]; 1 ppm in PDA medium) was “++”, the growth of bacteria ([2]; 10 ppm in PDA medium) was “+” and the growth of bacteria ([2]; 100 ppm in PDA medium) was “−”. For the same compound, the growth of bacteria ([3]; 1 ppm in PDA medium) was “++”, the growth of bacteria ([3]; 10 ppm in PDA medium) was “+” and the growth of bacteria ([3]; 100 ppm in PDA medium) was “−”. The growth of bacteria ([4]; 1 ppm in PDA medium) was “+”, the growth of bacteria ([4]; 10 ppm in PDA medium) was “−” and the growth of bacteria ([4]; 100 ppm in PDA medium) was “−”. For the same compound, the Disease severity ([7]; 125 ppm) was 24 and the Preventive value ([7]; 125 ppm) was 67.

In the case of `N=C(N)NCCCCCCCCNCCCCCCCCNC(=N)N.O=S(=O)(O)O` [bis (8-guanidiooctyl) amine sulfate], the “in vitro antibacterial activity against plant pathogenic bacteria” value (from here on “in vitro antibacterial activity”) [8] is listed as “no activity” and the “in vitro antibacterial activity” value [9] is listed as “no activity”.

For `N=C(N)NCCCCCCCCCCNCCCCCCCCCCNC(=N)N.O=S(=O)(O)O` [bis (10-guanidinodecyl) amine sulfate], the “in vitro antibacterial activity” value [8] is given as “revealed to have in vitro antibacterial activity” and the “in vitro antibacterial activity” value [9] is given as “revealed to have in vitro antibacterial activity”.

For `Cl.N=C(N)NCCCCCCCCCCCCNCCCCCCCCCCCCNC(=N)N` [bis (12-guanidinododecyl) amine hydrochloride], the “in vitro antibacterial activity” value [8] is listed as “revealed to have in vitro antibacterial activity” and the “in vitro antibacterial activity” value [9] is listed as “revealed to have in vitro antibacterial activity”.
